Legend:
r(CUG)12-MBNL1 complex = assay: TR-FRET assay, disruption of the r(CUG)12-MBNL1 complex; assay type: biochemical; details: TR-FRET; read-out: IC50 for disrupting the r(CUG)12-MBNL1 complex
Protocol: As mentioned above, DM1 is caused by sequestration of MBNL1 by r(CUG)^exp.^28, 32-37 Therefore, in vitro potency was determined by measuring displacement of MBNL1 from a r(CUG)12-MBNL1 complex using a time-resolved FRET (TR-FRET) assay.^15, 47 Each dimeric compound disrupts the r(CUG)12-MBNL1 complex with IC50's between ˜3 and ˜300 μM (FIG. 3). […] This may be due to the presence of imino protons that can favorably interact with the phosphodiester backbone of RNA (FIG. 2).
Initial in vitro activity of modularly assembled compounds was assessed by disruption of the r(CUG)^exp-MBNL1 complex using a previously reported TR-FRET assay.^15, 47 The ratio of fluorescence intensity of 545 and 665 nm in the presence and absence of compound were used to calculate percent inhibition.
The resulting curves were fit to the following equation to determine IC50 values:
[formula] where y is the ratio of fluorescence intensities at 545 nm and 665 nm (F545/F665), x is the concentration of small molecule, B is the F545/F665 ratio reflective of the maximum amount of FRET observed (absence of small molecule); A is the F545/F665 ratio reflective of the minimum amount of FRET observed (absence of RNA, protein, and small molecule; only antibodies are present); and the IC50 is the concentration of small molecule where half of the protein is displaced by small molecule. Improvement of DM1-Associated Splicing Defects in a DM1 Cell Culture Model Using RT-PCR.

pronase = assay: Proteolytic stability against pronase digestion (HPLC); assay type: in vitro ADME, Streptomyces griseus K-1; parameters: key to Pronase Degradation (pH 7.8) / Pronase Degradation (pH 9): +: Pronase stable; ++: Intermediate Pronase stability; +++: Pronase unstable
Protocol: Proteolytic stability of second and third generation compounds was assessed using pronase as previously described.^3 Pronase is a group of≧10 proteases isolated from Streptomyces griseus K-1. As such, proteolytic degradation was measured at two pH's, 7.8 and 9.0. Briefly, promise (1 unit) was added to the compound of interest (400 μM in 40 μL) in 1X Digestion Buffer (50 mM Tris-HCl, pH 7.8 or 9.0, and 10 mM CaCl2), and the reaction was incubated at 37° C. for 18 h. Reactions were quenched by addition of 4 μL of 25% acetic acid, and the products of the pronase digestion were analyzed by HPLC. A linear gradient of 0-100% methanol in H2O with 0.1% (v/v) TFA and a flow rate of 1 mL/min were employed.

[1] = test system: C2C12 cell line expressing firefly luciferase mRNA with r(CUG)800 in the 3′ UTR; assay: DM1 translational defect, luciferase model system; assay type: cell-based; details: 10 μM compound, 24 h
Source text: Next, compounds were studied for improving translational defects associated with DM1 (due to poor nucleocytoplasmic transport of r(CUG)^exp-containing transcripts).^33-40 In particular, a cellular model system was employed in which the C2C12 cell line stably expresses r(CUG)800 embedded in the 3′ UTR of firefly luciferase.^18 Akin to DMPK mRNA in DM1-affected cells, the expanded repeat impairs nucleocytoplasmic transport of luciferase mRNA and thus decreases luciferase expression. Compounds that bind r(CUG)^exp and disrupt the r(CUG)^exp-MBNL1 complex may stimulate cytoplasmic transport of the luciferase mRNA and thus translation of luciferase (FIG. 4C).
C2C12 cell lines expressing 800 or 0 CTG repeats in the 3′ UTR of luciferase were grown as monolayers in 96-well plates in growth medium (1X DMEM, 10% FBS, 1X Glutamax, (Invitrogen) and 1X penicillin/streptomycin (MP Biomedicals LLC)). After 24 h, the compound of interest was added in 50 μL of growth medium. Cells were treated with compound for 24 h. Luciferase activity was determined as previously described.^18

HeLa cells [2] = assay: Cellular permeability by flow cytometry (intrinsic fluorescence of H module); assay type: cell-based; details: 1 μM versus 10 μM, 24 h
Protocol: (§1) Next, we studied the effect of the assembly scaffold on cellular permeability and toxicity by flow cytometry (FIG. 9). Permeability was monitored by using the intrinsic fluorescence of the H module while toxicity was measured by propidium iodide (PI) staining. Cells were treated with 1 or 10 μM compound for 24 h and then analyzed. […] With the exception of 2H-SPM, all compounds are more cell permeable and less toxic than the parent compound, 2H-4, when cells are treated with 1 μM compound (FIG. 9). It has been shown that N-alkylated glycines such as peptoids and PTAs enter cells in greater amounts than peptides^52, 53 and that structurally constrained peptides are more cell permeable than their unstructured counterparts.^54-57
(§2) HeLa cells were grown in 12-well plates in growth medium (1X DMEM, 10% FBS, and 1X Glutamax (Invitrogen)) for 24 h until they reached 90-95% confluency. The growth medium was removed and replaced with 750 μL of fresh medium containing the compound of interest. Cells were treated for 24 h and then washed with 1X DPBS. The cells were trypsinized, pelleted, and washed twice with ice-cold 1X DPBS. Cells were resuspended in 1X DPBS containing […] (Sigma Aldrich) and incubated on ice for 30 min. Analysis of 10,000 events was completed using a BD LSRII flow cytometer using standard forward and side scatter metrics. Cells were compared to controls treated with medium alone. Propidium iodide staining was used to detect cells that are grossly intact but are permeabilized. PI was detected using a 561 nm laser. Hoechst 33258 was used as a positive control for gating 2H-X compounds. H was detected using a UV laser (355 nm). Gates for positive staining were created in relation to untreated, unstained cells; untreated, PI stained cells; and Hoechst 33258 treated cells.

HeLa cells [3] = assay: Toxicity by propidium iodide staining, flow cytometry; assay type: cell-based; details: 10 μM compound, 24 h
Protocol: as §1, §2

IC50 (r(CUG)12-MBNL1 complex): ~3 µM
Pronase Degradation (pH 7.8) (pronase; pH 7.8, 37° C., 18 h, 400 μM compound): +
susceptibility to pronase digestion (pronase; pH 7.8 and pH 9.0 for 18 h): no observed degradation
Pronase Degradation (pH 9) (pronase; pH 9.0, 37° C., 18 h, 400 μM compound): +
cellular permeability, reduction at 1 μM dosage (HeLa cells [2]): 50%
Compound: CN1CCN(c2ccc3[nH]c(-c4ccc5nc(-c6cccc(OCCCC(=O)NCCCNCCCCNCCCNC(=O)CCCOc7cccc(-c8nc9ccc(-c%10nc%11cc(N%12CCN(C)CC%12)ccc%11[nH]%10)cc9[nH]8)c7)c6)[nH]c5c4)nc3c2)CC1 [Compound 2H-SPM]
improvement of DM1 translational defect (luciferase activity) [1]: less improvement than the others
toxicity (propidium iodide staining) (HeLa cells [3]): significant toxicity
